Columns and labels:
Fusarium culmorum [1] = experiment: whole plant or invertebrate; assay type: in vivo, Fusarium culmorum on wheat spikelets cv. Monsun; details: in Triticum aestivum, read-out: control of Fusarium culmorum
Sclerotinia sclerotiorum = Sclerotinia sclerotiorum / liquid culture (cottony rot); assay type: cell-based; details: growth inhibition photometrically 3-4 days after application, vs untreated control
Protocol: Sclerotinia sclerotiorum/Liquid Culture (Cottony Rot)
Mycelia fragments of a newly grown liquid culture of the fungus are directly mixed into nutrient broth (Vogels broth). After placing a (DMSO) solution of test compound into a microtiter plate (96-well format) the nutrient broth containing the fungal material is added. The test plates are incubated at 24° C. and the inhibition of growth is determined photometrically 3-4 days after application.

[2] = system: Glomerella lagenarium (Colletotrichum lagenarium); experiment: Glomerella lagenarium (Colletotrichum lagenarium) / liquid culture (anthracnose); assay type: cell-based; details: Colletotrichum orbiculare, growth inhibition photometrically 3-4 days after application, vs untreated control
Protocol: (§1) Conidia of the fungus from cryogenic storage are directly mixed into nutrient broth (PDB potato dextrose broth). After placing a (DMSO) solution of test compound into a microtiter plate (96-well format), the nutrient broth containing the fungal spores is added. The test plates are incubated at 24° C. and the inhibition of growth is measured photometrically 3-4 days after application.

[3] = system: Monographella nivalis (Microdochium nivale); experiment: Monographella nivalis (Microdochium nivale) / liquid culture (foot rot cereals); assay type: cell-based; details: growth inhibition photometrically 4-5 days after application, vs untreated control
Protocol: Monographella nivalis (Microdochium nivale)/Liquid Culture (Foot Rot Cereals)
as §1, with “determined” for “measured”, “4-5” for “3-4”

Fusarium culmorum [4] = experiment: microbe, parasite or virus in culture; assay type: cell-based; details: read-out: control of Fusarium culmorum
[5] = system: Magnaporthe grisea (Pyricularia oryzae); experiment: whole plant or invertebrate; assay type: in vivo, Magnaporthe grisea on rice leaf segments cv. Ballila; details: foliar, read-out: control of Magnaporthe grisea
[6] = system: Botryotinia fuckeliana (Botrytis cinerea); experiment: Botryotinia fuckeliana (Botrytis cinerea) / liquid culture (gray mould); assay type: cell-based; details: growth inhibition photometrically 3-4 days after application, vs untreated control
Protocol: Botryotinia fuckeliana (Botrytis cinerea)/Liquid Culture (Gray Mould)
as §1, with “(Vogels” for “(PDB potato dextrose”, “determined” for “measured”

[7] = system: Magnaporthe grisea (Pyricularia oryzae); experiment: microbe, parasite or virus in culture; assay type: cell-based; details: read-out: control of Magnaporthe grisea

CC1(CC(Cc2ccccc2)C(=O)Nc2cnc3c(F)cccc3c2)CC1 (centres unmarked) [Compound E-91, 2-benzyl-N-(8-fluoro-3-quinolyl)-3-(1-methylcyclopropyl)propanamide]
135 to 136 °C: melting point
≥ 80%: pest or weed control at 200 ppm (Fusarium culmorum [1]) | inhibition of growth at 20 ppm (Sclerotinia sclerotiorum) | inhibition of growth at 200 ppm [2] | inhibition of growth at 200 ppm [3] | inhibition of growth at 200 ppm (Fusarium culmorum [4]) | pest or weed control at 200 ppm [5] | inhibition of growth at 200 ppm [6] | inhibition of growth at 200 ppm [7]

CC(C)(C)CC(Cc1ccccc1)C(=O)Nc1cnc2c(F)cccc2c1 (centres unmarked) [Compound E-98, 2-benzyl-N-(8-fluoro-3-quinolyl)-4,4-dimethyl-pentanamide]
≥ 80%: inhibition of growth at 200 ppm [2] | inhibition of growth at 200 ppm (Fusarium culmorum [4]) | pest or weed control at 200 ppm [5] | inhibition of growth at 200 ppm [6] | inhibition of growth at 200 ppm [7]

Cc1c(NC(=O)[C@@H](Cc2ccccc2)CC(C)(C)C)cnc2c(F)cccc12 [Compound F-36, (2R)-2-benzyl-N-(8-fluoro-4-methyl-3-quinolyl)-4,4-dimethyl-pentanamide]
≥ 80%: pest or weed control at 200 ppm (Fusarium culmorum [1]) | inhibition of growth at 20 ppm (Sclerotinia sclerotiorum) | inhibition of growth at 200 ppm [2] | inhibition of growth at 200 ppm [3] | inhibition of growth at 200 ppm (Fusarium culmorum [4]) | pest or weed control at 200 ppm [5] | inhibition of growth at 200 ppm [6] | inhibition of growth at 200 ppm [7]

Cc1c(NC(=O)[C@H](Cc2ccccc2)CC(C)(C)C)cnc2c(F)cccc12 [Compound F-35, (2S)-2-benzyl-N-(8-fluoro-4-methyl-3-quinolyl)-4,4-dimethyl-pentanamide]
≥ 80%: pest or weed control at 200 ppm (Fusarium culmorum [1]) | inhibition of growth at 200 ppm [2] | inhibition of growth at 200 ppm [3] | inhibition of growth at 200 ppm (Fusarium culmorum [4]) | pest or weed control at 200 ppm [5] | inhibition of growth at 200 ppm [6] | inhibition of growth at 200 ppm [7]

Cc1nc2c(F)cccc2cc1NC(=O)C(C)(Cc1ccccc1)CC1(C)CC1 (centres unmarked) [Compound E-99, 2-benzyl-N-(8-fluoro-2-methyl-3-quinolyl)-2-methyl-3-(1-methylcyclopropyl)propanamide]
≥ 80%: pest or weed control at 200 ppm (Fusarium culmorum [1]) | inhibition of growth at 200 ppm [2] | inhibition of growth at 200 ppm (Fusarium culmorum [4]) | pest or weed control at 200 ppm [5] | inhibition of growth at 200 ppm [6] | inhibition of growth at 200 ppm [7]
151 to 152 °C: melting point

C=C(Cl)C[C@H](Cc1ccccc1)C(=O)Nc1cnc2c(F)cccc2c1C [Compound F-28, (2S)-2-benzyl-4-chloro-N-(8-fluoro-4-methyl-3-quinolyl)pent-4-enamide]
≥ 80%: inhibition of growth at 20 ppm (Sclerotinia sclerotiorum) | inhibition of growth at 200 ppm [2] | inhibition of growth at 200 ppm [3] | inhibition of growth at 200 ppm (Fusarium culmorum [4]) | inhibition of growth at 200 ppm [6] | inhibition of growth at 200 ppm [7]

Cc1c(NC(=O)C(C)(Cc2ccccc2)CC2(C)CC2)cnc2c(F)cccc12 (centres unmarked) [Compound E-100, 2-benzyl-N-(8-fluoro-4-methyl-3-quinolyl)-2-methyl-3-(1-methylcyclopropyl)propanamide]
163 to 164 °C: melting point
≥ 80%: pest or weed control at 200 ppm (Fusarium culmorum [1]) | inhibition of growth at 20 ppm (Sclerotinia sclerotiorum) | inhibition of growth at 200 ppm [2] | inhibition of growth at 200 ppm (Fusarium culmorum [4]) | pest or weed control at 200 ppm [5] | inhibition of growth at 200 ppm [6] | inhibition of growth at 200 ppm [7]

Cc1nc2c(F)cccc2cc1NC(=O)C(Cc1ccccc1)CC(C)(C)C (centres unmarked) [Compound E-97, 2-benzyl-N-(8-fluoro-2-methyl-3-quinolyl)-4,4-dimethyl-pentanamide]
≥ 80%: pest or weed control at 200 ppm (Fusarium culmorum [1]) | inhibition of growth at 200 ppm [2] | inhibition of growth at 200 ppm [3] | inhibition of growth at 200 ppm (Fusarium culmorum [4]) | pest or weed control at 200 ppm [5] | inhibition of growth at 200 ppm [6] | inhibition of growth at 200 ppm [7]

Cc1nc2c(F)cccc2cc1NC(=O)[C@](C)(Cc1cccc(F)c1)CC(C)C [Compound F-29, (2S)-N-(8-fluoro-2-methyl-3-quinolyl)-2-[(3-fluorophenyl)methyl]-2,4-dimethyl-pentanamide]
≥ 80%: inhibition of growth at 20 ppm (Sclerotinia sclerotiorum) | inhibition of growth at 200 ppm [2] | inhibition of growth at 200 ppm [3] | pest or weed control at 200 ppm [5] | inhibition of growth at 200 ppm [6] | inhibition of growth at 200 ppm [7]

Cc1nc2c(F)cccc2cc1NC(=O)[C@](C)(Cc1cccc(F)c1)CC(F)(F)F [Compound F-32, (2R)-4,4,4-trifluoro-N-(8-fluoro-2-methyl-3-quinolyl)-2-[(3-fluorophenyl)methyl]-2-methyl-butanamide]
≥ 80%: pest or weed control at 200 ppm (Fusarium culmorum [1]) | inhibition of growth at 20 ppm (Sclerotinia sclerotiorum) | inhibition of growth at 200 ppm [2] | inhibition of growth at 200 ppm (Fusarium culmorum [4]) | pest or weed control at 200 ppm [5] | inhibition of growth at 200 ppm [6] | inhibition of growth at 200 ppm [7]

C=C(Cl)C[C@@](C)(Cc1ccccc1)C(=O)Nc1cnc2c(F)cccc2c1C [Compound F-42, (2R)-2-benzyl-4-chloro-N-(8-fluoro-4-methyl-3-quinolyl)-2-methyl-pent-4-enamide]
≥ 80%: pest or weed control at 200 ppm (Fusarium culmorum [1]) | inhibition of growth at 20 ppm (Sclerotinia sclerotiorum) | inhibition of growth at 200 ppm [2] | inhibition of growth at 200 ppm [3] | inhibition of growth at 200 ppm (Fusarium culmorum [4]) | pest or weed control at 200 ppm [5] | inhibition of growth at 200 ppm [6] | inhibition of growth at 200 ppm [7]

Cc1nc2c(F)cccc2cc1NC(=O)[C@@](C)(Cc1cccc(F)c1)CC(C)C [Compound F-30, (2R)-N-(8-fluoro-2-methyl-3-quinolyl)-2-[(3-fluorophenyl)methyl]-2,4-dimethyl-pentanamide]
≥ 80%: inhibition of growth at 20 ppm (Sclerotinia sclerotiorum) | inhibition of growth at 200 ppm [2] | inhibition of growth at 200 ppm [3] | pest or weed control at 200 ppm [5] | inhibition of growth at 200 ppm [6] | inhibition of growth at 200 ppm [7]

C=C(Cl)C[C@](C)(Cc1ccccc1)C(=O)Nc1cnc2c(F)cccc2c1C [Compound F-41, (2S)-2-benzyl-4-chloro-N-(8-fluoro-4-methyl-3-quinolyl)-2-methyl-pent-4-enamide]
≥ 80%: pest or weed control at 200 ppm (Fusarium culmorum [1]) | inhibition of growth at 20 ppm (Sclerotinia sclerotiorum) | inhibition of growth at 200 ppm [2] | inhibition of growth at 200 ppm [3] | pest or weed control at 200 ppm [5] | inhibition of growth at 200 ppm [6]

C=C(Cl)C[C@](C)(Cc1ccccc1)C(=O)Nc1cc2cccc(F)c2nc1C [Compound F-44, (2S)-2-benzyl-4-chloro-N-(8-fluoro-2-methyl-3-quinolyl)-2-methyl-pent-4-enamide]
≥ 80%: pest or weed control at 200 ppm (Fusarium culmorum [1]) | inhibition of growth at 20 ppm (Sclerotinia sclerotiorum) | inhibition of growth at 200 ppm [2] | inhibition of growth at 200 ppm [3] | inhibition of growth at 200 ppm (Fusarium culmorum [4]) | pest or weed control at 200 ppm [5] | inhibition of growth at 200 ppm [6] | inhibition of growth at 200 ppm [7]

Cc1nc2c(F)cccc2cc1NC(=O)[C@@H](Cc1ccccc1)CC1(C)CC1 [Compound F-38, (2R)-2-benzyl-N-(8-fluoro-2-methyl-3-quinolyl)-3-(1-methylcyclopropyl)propanamide]
≥ 80%: pest or weed control at 200 ppm (Fusarium culmorum [1]) | inhibition of growth at 20 ppm (Sclerotinia sclerotiorum) | inhibition of growth at 200 ppm [2] | inhibition of growth at 200 ppm [3] | inhibition of growth at 200 ppm (Fusarium culmorum [4]) | inhibition of growth at 200 ppm [6] | inhibition of growth at 200 ppm [7]

C=C(Cl)C[C@H](Cc1ccccc1)C(=O)Nc1cc2cccc(F)c2nc1C [Compound F-26, (2S)-2-benzyl-4-chloro-N-(8-fluoro-2-methyl-3-quinolyl)pent-4-enamide]
≥ 80%: pest or weed control at 200 ppm (Fusarium culmorum [1]) | inhibition of growth at 20 ppm (Sclerotinia sclerotiorum) | inhibition of growth at 200 ppm [2] | inhibition of growth at 200 ppm (Fusarium culmorum [4]) | pest or weed control at 200 ppm [5] | inhibition of growth at 200 ppm [6] | inhibition of growth at 200 ppm [7]

Cc1nc2c(F)cccc2cc1NC(=O)[C@H](Cc1ccccc1)CC1(C)CC1 [Compound F-37, (2S)-2-benzyl-N-(8-fluoro-2-methyl-3-quinolyl)-3-(1-methylcyclopropyl)propanamide]
≥ 80%: pest or weed control at 200 ppm (Fusarium culmorum [1]) | inhibition of growth at 200 ppm [2] | inhibition of growth at 200 ppm (Fusarium culmorum [4]) | inhibition of growth at 200 ppm [6] | inhibition of growth at 200 ppm [7]

Cc1nc2c(F)cccc2cc1NC(=O)[C@@H](Cc1ccccc1)CC(C)(C)C [Compound F-34, (2R)-2-benzyl-N-(8-fluoro-2-methyl-3-quinolyl)-4,4-dimethyl-pentanamide]
≥ 80%: pest or weed control at 200 ppm (Fusarium culmorum [1]) | inhibition of growth at 20 ppm (Sclerotinia sclerotiorum) | inhibition of growth at 200 ppm [2] | inhibition of growth at 200 ppm [3] | inhibition of growth at 200 ppm (Fusarium culmorum [4]) | pest or weed control at 200 ppm [5] | inhibition of growth at 200 ppm [6] | inhibition of growth at 200 ppm [7]

Reference: patent US20220030867A1 (priority 2018, published 2022)
